# In PMC4585259 (Frontiers in Pharmacology, 2015):
# Target: T1, rNav1.2 sodium channels (Rattus norvegicus, UniProt P04775)
# T1 construct: host or cells: HEK-293
# Assay: QPatch automated patch clamp, inhibition of sodium currents evoked by 5 Hz trains at three extracellular pH values
# Format: cell-based
# Settings: for τoffset / τonset: concentration (lidocaine 300 μM, memantine 30 μM)
# Outline: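 Trains of 5 steps from −90 to −10 mV every 20 s. Apparent affinity, onset/offset time constants (single-exponential fits) and reversibility (w−i)/(c−i) were derived from single-concentration data.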
# T1 sequence (P04775 whole entry): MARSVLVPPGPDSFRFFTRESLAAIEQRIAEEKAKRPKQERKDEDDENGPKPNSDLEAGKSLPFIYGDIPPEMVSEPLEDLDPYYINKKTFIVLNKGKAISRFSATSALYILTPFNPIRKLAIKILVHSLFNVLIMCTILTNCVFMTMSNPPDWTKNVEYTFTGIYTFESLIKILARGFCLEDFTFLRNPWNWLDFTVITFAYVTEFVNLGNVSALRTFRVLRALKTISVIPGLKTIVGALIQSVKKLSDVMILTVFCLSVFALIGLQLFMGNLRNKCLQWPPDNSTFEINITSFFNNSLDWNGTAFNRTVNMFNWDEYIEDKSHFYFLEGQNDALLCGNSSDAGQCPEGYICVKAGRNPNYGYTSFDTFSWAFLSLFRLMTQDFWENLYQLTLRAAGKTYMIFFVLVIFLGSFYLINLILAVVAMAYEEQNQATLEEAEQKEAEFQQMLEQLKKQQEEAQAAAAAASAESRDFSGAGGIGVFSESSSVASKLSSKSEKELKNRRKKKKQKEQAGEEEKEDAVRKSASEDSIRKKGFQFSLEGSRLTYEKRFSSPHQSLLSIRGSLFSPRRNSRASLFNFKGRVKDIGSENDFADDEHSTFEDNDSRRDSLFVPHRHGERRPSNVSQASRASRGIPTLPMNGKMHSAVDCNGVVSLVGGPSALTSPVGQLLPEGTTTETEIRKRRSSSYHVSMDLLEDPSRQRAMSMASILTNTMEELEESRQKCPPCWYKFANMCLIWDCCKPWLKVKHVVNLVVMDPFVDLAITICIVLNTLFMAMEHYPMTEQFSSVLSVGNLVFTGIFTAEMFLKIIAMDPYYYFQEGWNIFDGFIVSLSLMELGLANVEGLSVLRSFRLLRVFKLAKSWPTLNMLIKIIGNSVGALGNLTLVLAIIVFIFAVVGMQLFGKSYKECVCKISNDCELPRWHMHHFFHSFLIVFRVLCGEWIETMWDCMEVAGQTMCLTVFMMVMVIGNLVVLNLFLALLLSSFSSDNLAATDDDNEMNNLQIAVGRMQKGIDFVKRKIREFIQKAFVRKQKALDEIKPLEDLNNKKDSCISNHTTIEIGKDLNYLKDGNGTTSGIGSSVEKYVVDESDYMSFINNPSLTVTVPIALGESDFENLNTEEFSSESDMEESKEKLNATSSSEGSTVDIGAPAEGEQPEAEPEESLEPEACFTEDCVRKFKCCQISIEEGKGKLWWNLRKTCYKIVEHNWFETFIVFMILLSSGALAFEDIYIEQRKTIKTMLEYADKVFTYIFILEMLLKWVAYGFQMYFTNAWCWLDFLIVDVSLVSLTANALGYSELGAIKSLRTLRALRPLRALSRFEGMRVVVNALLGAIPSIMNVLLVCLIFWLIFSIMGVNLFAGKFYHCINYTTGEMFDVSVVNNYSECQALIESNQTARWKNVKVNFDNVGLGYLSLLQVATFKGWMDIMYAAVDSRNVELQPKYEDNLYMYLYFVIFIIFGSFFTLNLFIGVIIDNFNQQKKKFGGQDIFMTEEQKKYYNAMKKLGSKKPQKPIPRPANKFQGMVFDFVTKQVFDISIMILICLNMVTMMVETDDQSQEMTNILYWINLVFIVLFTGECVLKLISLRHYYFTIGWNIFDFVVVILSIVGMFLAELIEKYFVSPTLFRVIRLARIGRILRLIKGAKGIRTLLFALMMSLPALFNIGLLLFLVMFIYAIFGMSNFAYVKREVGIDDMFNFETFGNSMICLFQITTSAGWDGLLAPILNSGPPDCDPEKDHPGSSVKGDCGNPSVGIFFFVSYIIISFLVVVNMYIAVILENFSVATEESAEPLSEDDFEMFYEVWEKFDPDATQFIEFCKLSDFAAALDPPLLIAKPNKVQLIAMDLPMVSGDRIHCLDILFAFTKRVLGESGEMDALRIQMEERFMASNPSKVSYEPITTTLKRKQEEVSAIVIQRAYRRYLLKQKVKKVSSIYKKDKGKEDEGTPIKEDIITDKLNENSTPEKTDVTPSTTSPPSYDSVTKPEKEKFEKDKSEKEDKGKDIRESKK
structure (smiles),measurement,setting,value
COc1ccc(C(CN(C)C)C2(O)CCCCC2)cc1 (stereo not shown) [venlafaxine],Kd,"Apparent Affinity, pH=6.0, cc 100 mM",810 µM
same,Kd,"Apparent Affinity, pH=7.3, cc 100 mM",539 µM
same,Kd,"Apparent Affinity, pH=8.6, cc 100 mM",174 µM
same,class of pH-dependence pattern (cluster analysis),"Ward's method on 18 variables of affinity, reversibility, onset",Class D
same,Kd,"apparent affinity, pH 6.0, single concentration (lidocaine 300 μM, memantine 30 μM), geometric mean of 5",810 µM
same,Kd,"apparent affinity, pH 7.3, single concentration (lidocaine 300 μM, memantine 30 μM), geometric mean of 5",539 µM
same,Kd,"apparent affinity, pH 8.6, single concentration (lidocaine 300 μM, memantine 30 μM), geometric mean of 5",174 µM
same,inhibition at 100 µM,pH 6,< 25%
same,Ratio Reversibility,"pH 6.0/7.3, cc 100 mM",0.250
same,Ratio Tau Offset,"pH 6.0/7.3, cc 100 mM",1.446
same,Ratio Tau Onset,"pH 6.0/7.3, cc 100 mM",1.639
same,log Ratio App Aff,"pH 6.0/7.3, cc 100 mM",0.177
same,Ratio Reversibility,"pH 6.0/8.6, cc 100 mM",0.250
same,Ratio Tau Offset,"pH 6.0/8.6, cc 100 mM",1.330
same,Ratio Tau Onset,"pH 6.0/8.6, cc 100 mM",1.405
same,log Ratio App Aff,"pH 6.0/8.6, cc 100 mM",0.669
same,τoffset,pH 6.0,13.30 s
same,τonset,pH 6.0,11.80 s
same,inhibition at 100 µM,pH 7.3,< 25%
same,Ratio Reversibility,"pH 7.3/8.6, cc 100 mM",0.999
same,Ratio Tau Offset,"pH 7.3/8.6, cc 100 mM",0.920
same,Ratio Tau Onset,"pH 7.3/8.6, cc 100 mM",0.857
same,log Ratio App Aff,"pH 7.3/8.6, cc 100 mM",0.492
same,τoffset,pH 7.3,9.20 s
same,τonset,pH 7.3,7.20 s
same,τoffset,pH 8.6,10.00 s
same,τonset,pH 8.6,8.40 s
same,effect of acidic pH on recovery,"pH = 6.0 vs 7.3, in words",decreased recovery
same,Reversibility,"pH=6.0, cc 100 mM",0.18
same,Reversibility,"pH=7.3, cc 100 mM",0.73
same,Reversibility,"pH=8.6, cc 100 mM",0.73
